This passage reports Control value results from patent US20140128411A1, “FUNGICIDAL COMPOSITION AND METHOD FOR CONTROLLING PLANT DISEASES” (Ishihara Sangyo Kaisha, Ltd., priority 2011, published 2014).

The subject of test [1] is Erysiphe graminis. Nature of the test: Test on preventive effect against wheat powdery mildew. The test is classed as in vivo, Erysiphe graminis on wheat (cultivar: Norin-61). Also noted: key: control value = (1 − a/b)×100; a, b = sporulation area treated/untreated. To be noted: single compound alone. On the procedure:
Wheat (cultivar: Norin-61) was cultivated in a plastic pot having a diameter of 7.5 cm, and when it reached 1.5-leaf stage, a chemical solution having each test compound adjusted to a prescribed concentration, was applied by a spray gun in an amount of 5 ml/seedling. After the chemical solution dried, conidia of Erysiphe graminis were dusted and inoculated and maintained in a constant temperature chamber at 20° C. From 6 to 8 days after the inoculation, the area of sporulation was investigated, and the control value was determined in accordance with the following formula, and the results are shown in Tables 1 to 7. The area of sporulation in the non-treated plot was determined in the same manner as for the treated plot except that water was applied by a spray gun instead of the chemical solution.
(§1) Control value=(1−a/b)×100
a: area of sporulation in the treated plot
b: area of sporulation in the non-treated plot
Based on the obtained control value, an expected value (control value) was calculated by the Colby's formula. The expected values by the Colby's formula are also shown in brackets ( ) in Tables 1 to 7.
When the experimental value is higher than the expected value, the fungicidal composition of the present invention has a synergistic effect against wheat powdery mildew.

In test [2] the test system is Botrytis cinerea. Briefly: Test on preventive effect against kidney bean gray mold. The note with it: single compound alone. Format: in vivo, Botrytis cinerea on kidney bean (cultivar: Taishokintoki). On the procedure:
Kidney bean (cultivar: Taishokintoki) was cultivated in a plastic pot having a diameter of 12 cm, and when it reached 3 to 4-leaf stage, a chemical solution having each test compound adjusted to a prescribed concentration, was applied by a spray gun in an amount of 10 ml/seedling. After the chemical solution dried, a suspension of conidia of Botrytis cinerea was blotted on a paper disk having a diameter of 8 mm for implantation inoculation and maintained in a constant temperature chamber at 20° C. Upon expiration of 3 days from the inoculation, the lesion area was investigated, and the control value was determined in accordance with the following formula, and the results are shown in Table 8. The lesion area in the non-treated plot was determined in the same manner as for the treated plot except that water was applied by a spray gun instead of the chemical solution.
as §1
a: lesion area in the treated plot
b: lesion area in the non-treated plot
Based on the obtained control value, an expected value (control value) was calculated by the Colby's formula. The expected values by the Colby's formula are also shown in brackets ( ) in Table 8.
When the experimental value is higher than the expected value, the fungicidal composition of the present invention has a synergistic effect against kidney bean gray mold.

Values joined by “and” are separate entries in the source; they are usually repeats but may differ in a detail not shown here. Identical values can stand only once.

Consider `CCCCCCCCc1c(CC)nc2ncnn2c1N` [ametoctradin], for which the results for the Control value in test [1] (200 ppm) and in test [1] (400 ppm) were 0 and 15, respectively.

With `Cn1cc(C(=O)Nc2ccc(F)cc2-c2ccc(Cl)c(Cl)c2)c(C(F)F)n1` [bixafen], the Control value in test [1] (250 ppm) is listed as 0; in test [1] (500 ppm), 50.

As for `COc1cc(C)c(C(=O)c2c(OC)ncc(Cl)c2C)c(OC)c1OC` [component (a), 3-(2,3,4-trimethoxy-6-methylbenzoyl)-5-chloro-2-methoxy-4-methylpyridine], the Control value in test [2] (200 ppm) was 0; in test [2] (400 ppm, spray, lesion area 3 days after inoculation), 0; in test [1] (0.25 ppm), 30; in test [1] (0.5 ppm, spray, area of sporulation 6 to 8 days after inoculation) it was 50 and 40.

Consider `C=CCSC(=O)n1c(N)c(-c2ccccc2C)c(=O)n1C(C)C` [fenpyrazamine], for which the Control value in test [1] (63 ppm) and in test [1] (250 ppm) was 0 in each case.

On to `O=C(NCCc1ncc(C(F)(F)F)cc1Cl)c1ccccc1C(F)(F)F` [fluopyram], for which the Control value in test [1] (16 ppm) was 40; in test [1] (31 ppm) it was 70.

On to `Cn1cc(C(=O)Nc2ccccc2-c2cc(F)c(F)c(F)c2)c(C(F)F)n1` [fluxapyroxad], for which the Control value came out at 30 in test [1] (6.3 ppm) and 50 in test [1] (50 ppm).

Consider `CC(C)C1C2CCC1c1c(NC(=O)c3cn(C)nc3C(F)F)cccc12` (centres unmarked) [isopyrazam], for which the Control value is given as 50 in test [1] (16 ppm) and 90 in test [1] (31 ppm).

For the compound `Cc1nn(C)c(F)c1C(=O)Nc1ccccc1C(C)CC(C)C` (centres unmarked) [penflufen], the results for the Control value in test [2] (50 ppm) and in test [2] (100 ppm) were 40 and 50, respectively.

Consider `Cn1cc(C(=O)Nc2ccccc2C2CC2C2CC2)c(C(F)F)n1` (centres unmarked) [sedaxane], for which the Control value in test [1] (6.3 ppm) came out at 0; in test [1] (12.5 ppm) it was 30.
